According to patent US5102786A, “Biological diagnostic assay system” (PB Diagnostic Systems, Inc., priority 1987, dated 1992):

Columns and labels:
[1] = test system: B-phycoerythrin; experiment: Fluorescent emission of B-phycoerythrin as a function of PNS and ANS; conditions: for effect on fluorescence emission of B-phycoerythrin in solution (in words): 0.125-0.50% agent
Description: (§1) The fluorescent emissions of B- and R-phycoerythrin were studied as a function of PNS and 8-anilino-1-naphthalene sulfonic acid (ANS). The experiments were conducted with solutions of the phycoerythrin (1.7×10^-10 M) in HEPES buffer containing varying amounts of PNS and ANS. The phycoerythrins were excited at 560 nm and their emissions measured at 575 nm.

[2] = test system: R-phycoerythrin; experiment: Fluorescent emission of R-phycoerythrin as a function of PNS and ANS; conditions: for effect on fluorescence emission of R-phycoerythrin in solution (in words): 0.125-0.50% agent
Description: as §1

[3] = Solubility of PNS in water; format: physicochemical
[4] = test system: plasma proteins; experiment: Displacement of a theophylline-rhodamine conjugate from plasma proteins (Centricon 30 filtration, 500-600 nm); format: binding, human
Description: The solutions were centrifuged through a Centricon 30 filter at 5000 g and the filtrates were scanned on a Perkin Elmer λ9 Spectrophotometer at 500-600 nm.

[5] = target: T1, HSA (Homo sapiens, UniProt P02768); experiment: Displacement of a fluorescein-theophylline conjugate from HSA (Centricon 30 filtration, 490 nm); format: binding; set-up: CONJUGATE (free conjugate in filtrate): unit not given here; conditions: 0.2% PNS
T1 sequence (P02768 25-609): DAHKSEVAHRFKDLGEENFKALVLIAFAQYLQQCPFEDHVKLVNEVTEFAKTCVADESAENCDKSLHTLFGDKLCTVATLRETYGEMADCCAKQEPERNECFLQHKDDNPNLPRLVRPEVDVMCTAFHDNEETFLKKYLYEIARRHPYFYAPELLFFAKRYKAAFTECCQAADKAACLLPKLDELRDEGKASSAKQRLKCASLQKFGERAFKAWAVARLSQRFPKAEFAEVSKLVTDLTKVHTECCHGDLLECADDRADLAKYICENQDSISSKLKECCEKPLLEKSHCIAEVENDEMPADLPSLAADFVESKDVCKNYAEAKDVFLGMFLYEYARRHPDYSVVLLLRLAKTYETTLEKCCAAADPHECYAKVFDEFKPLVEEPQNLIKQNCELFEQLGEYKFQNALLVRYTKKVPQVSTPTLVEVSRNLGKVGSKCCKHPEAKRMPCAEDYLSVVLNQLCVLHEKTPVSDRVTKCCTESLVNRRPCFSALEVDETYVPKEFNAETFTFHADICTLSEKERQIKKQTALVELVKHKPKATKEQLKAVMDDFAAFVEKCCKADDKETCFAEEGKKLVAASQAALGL
Description: (§2) Experiments were carried out with fluorescein and a fluorescein-theophylline conjugate, respectively, dissolved in HEPES buffer and containing various amounts of HSA. […] The solutions were centrifuged through a Centricon 30 filter at 5000 g and the filtrates were scanned at 490 nm.

[6] = target: T1, HSA; experiment: Displacement of fluorescein from HSA (Centricon 30 filtration, 490 nm)
Description: as §2

[7] = test system: plasma proteins; experiment: Displacement of phenobarbital from plasma protein (filtration through Centricon PM 10, scintillation counting)
[8] = target: Human Serum Albumin (HSA) (Homo sapiens, UniProt P02768); experiment: Displacement of sulforhodamine 101 from human serum albumin (Centricon 30 filtration, absorbance 586 nm); format: binding
Human Serum Albumin (HSA), sequence (P02768 25-609): as above
Description: Two sets of aqueous solutions, 1.05×10^-5 M in sulforhodamine 101, were prepared in HEPES buffer with varying amounts of HSA.

[9] = target: T2, plasma proteins (Homo sapiens, UniProt P02768); experiment: in vitro; format: binding
T2 construct: Experiments were conducted with a set of plasma solutions in HEPES buffer; from tissue; host or cells: plasma
T2 sequence (P02768 25-609): as above
Description: Experiments were conducted with a set of plasma solutions in HEPES buffer containing ^14 C-labeled phenytoin (9.3×10^-5 M) and varying amounts of PNS.

[10] = Displacement of phenobarbital from plasma protein (filtration through Centricon PM 10, scintillation counting); conditions: human, plasma
[11] = 0.125% PNS or ANS, excited at 560 nm, emission 575 nm, HEPES buffer

## O=S(=O)(O)c1cccc2cccc(Nc3ccccc3)c12 [ANS, 8-anilino-1-naphthalene sulfonic acid, reference compound]
[1]; [11]
  B-phycoerythrin rel. fl. intensity in the presence of PNS or ANS: 0.61
[1]
  effect on fluorescence emission of B-phycoerythrin in solution (in words): quenches the emissions of both phycoerythrins very strongly
[1]; 0.25% PNS or ANS
  B-phycoerythrin rel. fl. intensity in the presence of PNS or ANS: 0.43
[1]; 0.375% PNS or ANS
  B-phycoerythrin rel. fl. intensity in the presence of PNS or ANS: 0.33
[1]; 0.50% PNS or ANS
  B-phycoerythrin rel. fl. intensity in the presence of PNS or ANS: 0.25
[2]; [11]
  R-phycoerythrin rel. fl. intensity in the presence of PNS or ANS: 0.72
[2]
  effect on fluorescence emission of R-phycoerythrin in solution (in words): quenches the emissions of both phycoerythrins very strongly
[2]; 0.25% PNS or ANS
  R-phycoerythrin rel. fl. intensity in the presence of PNS or ANS: 0.54
[2]; 0.375% PNS or ANS
  R-phycoerythrin rel. fl. intensity in the presence of PNS or ANS: 0.40
[2]; 0.50% PNS or ANS
  R-phycoerythrin rel. fl. intensity in the presence of PNS or ANS: 0.29

## O=S(=O)(O)c1cccc2cccc(Oc3ccccc3)c12 [PNS, 1-phenoxynaphthalene-8-sulfonic acid]
[1]; [11]
  B-phycoerythrin rel. fl. intensity in the presence of PNS or ANS: 1.0
[1]
  effect on fluorescence emission of B-phycoerythrin in solution (in words): does not affect the fluorescence emissions
[1]; 0.25% PNS or ANS
  B-phycoerythrin rel. fl. intensity in the presence of PNS or ANS: 1.0
[1]; 0.375% PNS or ANS
  B-phycoerythrin rel. fl. intensity in the presence of PNS or ANS: 1.0
[1]; 0.50% PNS or ANS
  B-phycoerythrin rel. fl. intensity in the presence of PNS or ANS: 1.0
[3]; pH range of interest (above 3, preferably 6 to 8)
  solubility in water: soluble in water at the required concentrations
[3]; very low pH, below pH 3
  solubility in water: precipitate from solution
[2]; [11]
  R-phycoerythrin rel. fl. intensity in the presence of PNS or ANS: 1.0
[2]
  effect on fluorescence emission of R-phycoerythrin in solution (in words): does not affect the fluorescence emissions
[2]; 0.25% PNS or ANS
  R-phycoerythrin rel. fl. intensity in the presence of PNS or ANS: 0.99
[2]; 0.375% PNS or ANS
  R-phycoerythrin rel. fl. intensity in the presence of PNS or ANS: 0.99
[2]; 0.50% PNS or ANS
  R-phycoerythrin rel. fl. intensity in the presence of PNS or ANS: 0.98
[4]; 0.2% PNS, 0% plasma
  % CONJUGATE (free conjugate in the filtrate): 100%
[4]; 0.2% PNS, 20% plasma
  % CONJUGATE (free conjugate in the filtrate): 94%
[4]; 0.2% PNS, 40% plasma
  % CONJUGATE (free conjugate in the filtrate): 88%
[4]; 0.2% PNS, 60% plasma
  % CONJUGATE (free conjugate in the filtrate): 87%
[4]; 0.2% PNS, 75% plasma
  % CONJUGATE (free conjugate in the filtrate): 89%
[4]; 0.2% PNS, 90% plasma
  % CONJUGATE (free conjugate in the filtrate): 88%
[4]; 0.2% PNS, human plasma
  providing free conjugate (in words): very effective in providing free conjugate
[5]
  providing free conjugate (in words): effective in providing free dye and free conjugate
[5]; 0% HSA
  CONJUGATE (free conjugate in filtrate): 100
[5]; 0.075% HSA
  CONJUGATE (free conjugate in filtrate): 93
[5]; 0.15% HSA
  CONJUGATE (free conjugate in filtrate): 87
[5]; 0.3% HSA
  CONJUGATE (free conjugate in filtrate): 87
[5]; 0.6% HSA
  CONJUGATE (free conjugate in filtrate): 82
[5]; 0.9% HSA
  CONJUGATE (free conjugate in filtrate): 76
[5]; 1.2% HSA
  CONJUGATE (free conjugate in filtrate): 72
[5]; 1.5% HSA
  CONJUGATE (free conjugate in filtrate): 69
[6]; 0.2% PNS
  providing free dye (in words): effective in providing free dye and free conjugate
[6]; 0.2% PNS, 0% HSA
  DYE (free dye in filtrate): 100
[6]; 0.2% PNS, 0.075% HSA
  DYE (free dye in filtrate): 99
[6]; 0.2% PNS, 0.15% HSA
  DYE (free dye in filtrate): 97
[6]; 0.2% PNS, 0.3% HSA
  DYE (free dye in filtrate): 98
[6]; 0.2% PNS, 0.6% HSA
  DYE (free dye in filtrate): 93
[6]; 0.2% PNS, 0.9% HSA
  DYE (free dye in filtrate): 92
[6]; 0.2% PNS, 1.2% HSA
  DYE (free dye in filtrate): 89
[6]; 0.2% PNS, 1.5% HSA
  DYE (free dye in filtrate): 88
[7]; 0.02% PNS in human plasma
  % PHENOBARBITAL (±3%) (passed through filter): 62.7%
[7]; 0.05% PNS in human plasma
  % PHENOBARBITAL (±3%) (passed through filter): 71.1%
[7]; 0.2% PNS in human plasma
  % PHENOBARBITAL (±3%) (passed through filter): 93.0%
[7]; 0.5% PNS in human plasma
  % PHENOBARBITAL (±3%) (passed through filter): 97.0%
[7]; human, plasma
  dissociation of phenobarbital from plasma proteins (in words): effective to dissociate phenobarbital from the plasma proteins
[8]; 0.2% PNS
  providing free sulforhodamine 101 (in words): very effective in providing free sulforhodamine 101
[8]; 0.2% PNS, 0% HSA
  % SULFORHODAMINE 101 (PASSED THROUGH FILTER): 100%
[8]; 0.2% PNS, 0.032% HSA
  % SULFORHODAMINE 101 (PASSED THROUGH FILTER): 99%
[8]; 0.2% PNS, 0.064% HSA
  % SULFORHODAMINE 101 (PASSED THROUGH FILTER): 94%
[8]; 0.2% PNS, 0.13% HSA
  % SULFORHODAMINE 101 (PASSED THROUGH FILTER): 88%
[8]; 0.2% PNS, 0.16% HSA
  % SULFORHODAMINE 101 (PASSED THROUGH FILTER): 83%
[8]; 0.2% PNS, 0.32% HSA
  % SULFORHODAMINE 101 (PASSED THROUGH FILTER): 68%
[8]; 0.2% PNS, 0.48% HSA
  % SULFORHODAMINE 101 (PASSED THROUGH FILTER): 61%
[9]; 0.1% PNS
  % Phenytoin (±3) passed through filter: 97.5%
[9]; 0.1-0.5% PNS
  providing free phenytoin (in words): very effective in providing free phenytoin
[9]; 0.2% PNS
  % Phenytoin (±3) passed through filter: 98.6%
[9]; 0.3% PNS
  % Phenytoin (±3) passed through filter: 98.7%
[9]; 0.4% PNS
  % Phenytoin (±3) passed through filter: 98.6%
[9]; 0.5% PNS
  % Phenytoin (±3) passed through filter: 96.7%

## O=C1OC2(c3ccc(O)cc3Oc3cc(O)ccc32)c2ccccc21 [fluorescein, reference compound]
[6]; CONTROL (no PNS), 0% HSA, HEPES buffer
  DYE (free dye in filtrate): 100
[6]; CONTROL (no PNS), 0.075% HSA
  DYE (free dye in filtrate): 83
[6]; CONTROL (no PNS), 0.15% HSA
  DYE (free dye in filtrate): 69
[6]; CONTROL (no PNS), 0.3% HSA
  DYE (free dye in filtrate): 52
[6]; CONTROL (no PNS), 0.5% HSA
  DYE (free dye in filtrate): 40
[6]; CONTROL (no PNS), 0.6% HSA
  DYE (free dye in filtrate): 35
[6]; CONTROL (no PNS), 1.0% HSA
  DYE (free dye in filtrate): 24
[6]; CONTROL (no PNS), 1.2% HSA
  DYE (free dye in filtrate): 20
[6]; CONTROL (no PNS), 1.5% HSA
  DYE (free dye in filtrate): 17

## CCC1(c2ccccc2)C(=O)NC(=O)NC1=O [phenobarbital, reference compound]
[10]
  fraction unbound: ~0.55
  fraction unbound at 1 h: 0.555

## O=C1NC(=O)C(c2ccccc2)(c2ccccc2)N1 [phenytoin, reference compound]
[9]; plasma
  fraction unbound at 93 µM: 0.119

## O=S(=O)([O-])c1cc(S(=O)(=O)O)ccc1C1=c2cc3c4c(c2Oc2c1cc1c5c2CCCN5CCC1)CCC[N+]=4CCC3 [sulforhodamine 101, reference compound]
[8]; CONTROL (no PNS), 0% HSA, HEPES buffer, 10.5 µM
  % SULFORHODAMINE 101 (PASSED THROUGH FILTER): 100%
[8]; CONTROL (no PNS), 0.032% HSA, 10.5 µM
  % SULFORHODAMINE 101 (PASSED THROUGH FILTER): 83%
[8]; CONTROL (no PNS), 0.064% HSA, 10.5 µM
  % SULFORHODAMINE 101 (PASSED THROUGH FILTER): 50%
[8]; CONTROL (no PNS), 0.13% HSA, 10.5 µM
  % SULFORHODAMINE 101 (PASSED THROUGH FILTER): 32%
[8]; CONTROL (no PNS), 0.16% HSA, 10.5 µM
  % SULFORHODAMINE 101 (PASSED THROUGH FILTER): 23%
[8]; CONTROL (no PNS), 0.32% HSA, 10.5 µM
  % SULFORHODAMINE 101 (PASSED THROUGH FILTER): 10%
[8]; CONTROL (no PNS), 0.48% HSA, 10.5 µM
  % SULFORHODAMINE 101 (PASSED THROUGH FILTER): 6%

## Cn1c(=O)c2[nH]c(CCCC(=O)N3CCN(C(=O)c4ccccc4C4=c5cc6c(cc5Oc5cc7c(cc54)CCCN7CC(=O)NCCS(=O)(=O)O)=[N+](CC(=O)NCCS(=O)(=O)[O-])CCC6)CC3)nc2n(C)c1=O [theophylline-rhodamine conjugate, reference compound]
[4]; CONTROL (no PNS), 0% plasma, 10 µM
  % CONJUGATE (free conjugate in the filtrate): 100%
[4]; CONTROL (no PNS), 5% plasma, 10 µM
  % CONJUGATE (free conjugate in the filtrate): 93%
[4]; CONTROL (no PNS), 20% plasma, 10 µM
  % CONJUGATE (free conjugate in the filtrate): 82%
[4]; CONTROL (no PNS), 45% plasma, 10 µM
  % CONJUGATE (free conjugate in the filtrate): 70%
[4]; CONTROL (no PNS), 65% plasma, 10 µM
  % CONJUGATE (free conjugate in the filtrate): 66%
[4]; CONTROL (no PNS), 85% plasma, 10 µM
  % CONJUGATE (free conjugate in the filtrate): 57%
[4]; CONTROL (no PNS), 95% plasma in HEPES buffer, 10 µM
  % CONJUGATE (free conjugate in the filtrate): 50%
